According to patent US6040300A, “Method of preventing colon cancer with vitamin D3 analogues” (Arch Development Corporation, priority 1995, dated 2000):
Entries after “also recorded” stand apart in the source; their conditions may differ.

Experiments:
HL-60 cells = details: cited from earlier work
[1] = Serum 25(OH)D3 levels (radioimmunoassay); format: in vivo, Male albino Fisher-344 rats; details: for Serum Levels 25(OH)D3: mean ± S.E.M., n=6
Text: (§1) Male albino Fisher-344 rats, initially weighing ~90-100 g, were used in these studies. On arrival, the animals were quarantined for 1 wk and then randomly divided into the following six test groups: groups 1 and 2, standard vitamin D-sufficient diet; groups 3 and 4, standard diet supplemented with RO24-5531 (2.50 nmol/kg of feed); and groups 5 and 6, standard vitamin D-sufficient diet. […] Next, the rats in groups 2,4 and 6 were given subcutaneous injections of azoxymethane (AOM, Sigma Chemical Co., St. Louis, Mo.), 15 mg/kg body wt once a wk for 2 wks, while the rats in groups 1,3 and 5 received AOM-vehicle (saline).
(§2) Groups 1 and 2 were then maintained on the standard diet for an additional […]. Groups 3 and 4 were maintained on the RO24-5531 supplemented diets for the initial five wks and then switched to the standard diet without RO24-5531 for an additional 29 wks (initiation arm), whereas groups 5 and 6 were maintained on the standard diet without supplemental RO24-5531 for the initial five wks and then switched to the RO24-5531 supplemented diet for an additional 29 wks (post-initiation arm).
(§3) All rats were sacrificed in the non-fasting state after 34 wks on these protocols between 9 a.m. and 11 a.m. and sera obtained for measurement of calcium, phosphate, 25(OH)D3 and 1α,25(OH)2 D3 levels. The rats' colons were removed, opened, washed with normal saline and examined macroscopically for the presence of tumors. Resected tumors were weighed, and were fixed in 10% buffered formalin for microscopic examination. After formalin fixation, tissue specimens were paraffin-embedded, sectioned, and stained with hematoxylin and eosin as described previously (Sitrin et al., 1991), for light microscopic examination. All specimens were evaluated by a pathologist who was unaware of the dietary or AOM treatment history. Macroscopic and microscopic lesions were classified as either benign (adenoma) or malignant (adenocarcinoma).
(§4) Serum calcium and phosphorus were measured by standard colorimetric methods (Kessler and Wolfman, Clin. Chem. 10:686-703, 1964). Serum 25(OH)D3 levels were measured by radioimmunoassay, using a kit and procedure supplied by Incstar (Stillwater, Minn.). Serum 1α,25(OH)2 D3 levels were assayed by a non-equilibrium competitive protein-binding assay based on a calf thymus receptor, using a kit and procedure supplied by Incstar, as previously described (Sitrin et al., 1991).
(§5) Results are expressed as means ±SE of n determinations. Data were analyzed by Fisher's exact test (two-tailed) or analysis of variance (ANOVA) as appropriate (Snedecor and Cochran, Statistical Methods, 1980). Values of p <0.05 were considered statistically significant.

[2] = system: AOM-induced colonic tumors; assay: AOM-induced colonic tumor formation with dietary RO24-5531; format: in vivo, Male albino Fisher-344 rats; details: for inhibition of development of colonic tumors / colon cancer incidence: AOM model, dietary supplementation
Protocol: FIG. 2. Study Protocol: Rats (12 each, in groups 1,3 and 5; 20 each, in groups 2,4 and 6) were fed either standard diet without RO24-5531 (open bars), or RO24-5531 supplemented diets (shaded bars) for the initial five weeks of the study. During this period rats were given two weekly subcutaneous injections of either AOM (15 mg/kg body wt/wk) (groups 2,4 or 6), or AOM-vehicle (saline) (groups 1,3, or 5) at the end of weeks 2 and 3 (arrows). At the end of five weeks, rats in groups 1-2 were continued on the standard diet without RO24-5531; groups 3-4 were switched to standard diet without RO24-5531; and groups 5-6 were switched to the RO24-5531 supplemented diet for another 29 weeks.
RO24-5531 was provided by Hoffmann LaRoche Inc. (Nutley, NJ; EP 580968). All diets were obtained from ICN Biochemicals (Cleveland, Ohio). Prior to pelleting, RO24-5531 or vehicle (0.1% ethanol) were mixed with the standard vitamin D-sufficient diet by ICN Biochemicals. This diet has been described in detail (Sitrin et al., 1991) and contained a normal content of calcium and phosphorus, 0.87% and 0.60%, respectively, with 2.2 IU of vitamin D3 /g of feed.
as §1, §2, §3, §5

c-myc mRNA = details: HL-60 cells; cited from earlier work
[3] = breast tumor study; cited from earlier work
[4] = Serum calcium (standard colorimetric method); format: in vivo, Male albino Fisher-344 rats; details: for hypercalcemia or alterations in serum levels: dietary supplementation, serum phosphorus, 25(OH)D3, 1,25(OH)2D3 also named; for Serum Levels Cas+: mean ± S.E.M.
Text: as §1, §2, §3, §4, §5

[5] = system: NMU-induced breast cancers; details: cited from earlier work
[6] = Body weight / growth and tolerability of the animals; format: in vivo; details: for Final Wt.: mean ± S.E.M.
Text: as §1, §2, §3, §5

[7] = group 4: RO24-5531/SD (initiation arm), AOM
[8] = group 6: SD/RO24-5531 (post-initiation arm), AOM
[9] = listed as 1α,25-dihydroxy-16-ene-23-yne-26,27-hexafluorocholecalciferol
[10] = group 3: RO24-5531/SD, no AOM, 12 animals
[11] = group 4: RO24-5531/SD (initiation arm), AOM, 20 animals
[12] = group 4: RO24-5531/SD (initiation arm), AOM, 20 animals, p < 0.05 vs group 2
[13] = group 5: SD/RO24-5531, no AOM, 12 animals
[14] = group 6: SD/RO24-5531 (post-initiation arm), AOM, 20 animals

C=C1/C(=C\C=C2/CCC[C@]3(C)C([C@H](C)CC#CC(O)(C(F)(F)F)C(F)(F)F)=CC[C@@H]23)C[C@@H](O)C[C@@H]1O [RO24-5531, 26,26,26,27,27,27-hexafluoro-1α,25-dihydroxy-16-ene-23-yne-cholecalciferol]
induction of differentiation (HL-60 cells): induction of differentiation | inhibition of proliferation (HL-60 cells): inhibit proliferation of HL-60 cells; also recorded: inhibition of proliferation | Serum Levels 25(OH)D3 ([1]; group 3: RO24-5531/SD, no AOM): 31 ± 2 ng/mL | Serum Levels 25(OH)D3 [1, 7]: 29 ± 2 ng/mL | Serum Levels 25(OH)D3 ([1]; group 5: SD/RO24-5531, no AOM): 33 ± 4 ng/mL | Serum Levels 25(OH)D3 [1, 8]: 36 ± 5 ng/mL | effect on serum levels of 25(OH)D3 ([1]; groups 4 and 6): significantly altered the serum levels of calcium, phosphorus or 25(OH)D3 | inhibition of development of colonic tumors / colon cancer incidence ([2]; listed as 1α, 25-Dihydroxy-16-ene-23-yne-26, 27-hexafluorocholecalciferol): reduced the incidence of colon cancer in rats | inhibition of development of colonic tumors / colon cancer incidence [2, 9]: can inhibit the development of colonic tumors in mammals; also recorded: can inhibit the development of colonic tumors in the AOM model | development of tumors ([2]; AOM-vehicle, RO24-5531 supplemented diets (groups 3, 5)): None of the control animals given injections of the AOM-vehicle and fed either the standard or RO24-5531 supplemented diets developed tumors | Tumors/Tumor Bearing rat ([2]; group 3: RO24-5531/SD, no AOM): 0 | No. of Tumor-Bearing Rats [2, 10]: 0 | No. of Tumors, Benign No. [2, 10]: 0 | No. of Tumors, Malignant No. [2, 10]: 0 | No. of Tumors, Total No. [2, 10]: 0 | incidence of colonic tumors vs group 2 ([2]; group 4, initiation arm): significant decreases in the incidence of colonic tumors | tumor type ([2]; group 4, initiation arm): all of the colonic tumors in group 4 (initiation arm) were found to be benign, i.e., adenomas | Tumor Wt. [2, 7]: 102 ± 28 mg | Tumors/Tumor Bearing rat [2, 7]: 1.0 | No. of Tumors, Benign No. [2, 11]: 3 | No. of Tumors, Malignant No. [2, 11]: 0 | No. of Tumor-Bearing Rats [2, 12]: 3 | No. of Tumors, Total No. [2, 12]: 3 | Tumor-Bearing Rats (% of Incidence) ([2]; group 4: RO24-5531/SD (initiation arm), AOM, p < 0.05 vs group 2 (50%)): 15% | Tumors/Tumor Bearing rat ([2]; group 5: SD/RO24-5531, no AOM): 0 | No. of Tumor-Bearing Rats [2, 13]: 0 | No. of Tumors, Benign No. [2, 13]: 0 | No. of Tumors, Malignant No. [2, 13]: 0 | No. of Tumors, Total No. [2, 13]: 0 | tumor type ([2]; group 6, post-initiation arm): all of the colonic tumors were found to be adenomas | number of tumors vs AOM alone animals ([2]; group 6, post-initiation arm, p >0.05): a trend for a decrease in the number of tumors; also recorded: did not reach statistical significance | Tumor Wt. [2, 8]: 109 mg | Tumors/Tumor Bearing rat [2, 8]: 1.0 | No. of Tumor-Bearing Rats [2, 14]: 6 | No. of Tumors, Benign No. [2, 14]: 6 | No. of Tumors, Malignant No. [2, 14]: 0 | No. of Tumors, Total No. [2, 14]: 6 | Tumor-Bearing Rats (% of Incidence) ([2]; group 6: SD/RO24-5531 (post-initiation arm), AOM, group 2: 50%): 30% | AOM-induced adenocarcinomas ([2]; post-initiation arm, like its initiation arm counterpart): complete absence of AOM-induced adenocarcinomas | c-myc mRNA expression (c-myc mRNA): decrease c-myc mRNA expression in HL-60 cells | serum Ca2+ levels [3]: without causing elevated levels of serum Ca^2+ | hypercalcemia or alterations in serum levels [4]: did not result in hypercalcemia | hypercalcemia or alterations in serum levels [4, 9]: does not induce hypercalcemia or alterations in the serum levels of phosphorus, 25(OH)D3, or 1,25(OH)2D3; also recorded: did not induce hypercalcemia or alterations in the serum levels of phosphorus, 25(OH)D3 or 1,25(OH)2D3 | Serum Levels Cas+ ([4]; group 3: RO24-5531/SD, no AOM, n=10): 11.3 ± 0.1 mg/dL | Serum Levels Cas+ ([4]; group 4: RO24-5531/SD (initiation arm), AOM, n=6): 10.1 ± 0.4 mg/dL | Serum Levels Cas+ ([4]; group 5: SD/RO24-5531, no AOM, n=14): 10.3 ± 0.4 mg/dL | Serum Levels Cas+ ([4]; group 6: SD/RO24-5531 (post-initiation arm), AOM, n=8): 10.1 ± 0.5 mg/dL | effect on serum levels of calcium ([4]; groups 4 (initiation arm) and 6 (post-initiation arm)): significantly altered the serum levels of calcium, phosphorus or 25(OH)D3 | protection against NMU-induced breast cancers ([5]; fed after administration of carcinogen): protected against the development of NMU-induced breast cancers | breast tumor incidence ([5]; in vivo): lessened tumor incidence | breast tumor latency ([5]; in vivo): extended breast tumor latency | breast tumor number ([5]; in vivo): lessened tumor incidence as well as tumor number | influence on growth of the animals ([6]; RO24-5531 supplemental dietary regimens, all groups): neither the RO24-5531 supplemental dietary regimens, nor the administration of carcinogen influenced the growth of the animals | tolerability ([6]; dietary supplementation): well-tolerated by the animals | Final Wt. ([6]; group 3: RO24-5531 2.50 nmol/kg of feed for initial five wks, then SD, no AOM): 470 ± 20 g | Final Wt. ([6]; group 4: RO24-5531/SD (initiation arm), AOM treated): 465 ± 16 g | Final Wt. ([6]; group 5: SD/RO24-5531 (supplement for last 29 wks), no AOM): 511 ± 30 g | Final Wt. ([6]; group 6: SD/RO24-5531 (post-initiation arm), AOM treated): 499 ± 28 g
